Measured values published in the Kinase Knowledgebase extract (Sharma et al. 2016).
pIC50: −log10 of the molar value.

Tests used:
[1] = target: EGFR (mouse) (UniProt P00533); settings: nih3t3/neu
[2] = target: EGFR (mouse) (UniProt P00533); settings: nih3t3/her14
[3] = target: EGFR (mouse) (UniProt P00533); settings: nih3t3

Row | pIC50 [1] | pIC50 [2] | pIC50 [3] | Structure (SMILES)
1 | 6.68 | 5.47 | – | CC(=O)OCN(C)N=Nc1ccc2ncnc(Nc3cccc(Br)c3)c2c1
2 | 4.78 | 4.54 | – | CNN=Nc1ccc2ncnc(Nc3cccc(C)c3)c2c1
3 | 4.22 | 3.83 | – | CC(=O)N(C)N=Nc1ccc2ncnc(Nc3cccc(C)c3)c2c1

The remaining lines, values behind:

Row | Structure (SMILES) | pIC50 [1] | pIC50 [2] | pIC50 [3]
4 | COc1cc2ncnc(Nc3cccc(Cl)c3)c2cc1OC.Cn1nnc2c(C(N)=O)ncn2c1=O | 5.96 | 5.21 | 4.40
5 | CN(CO)N=Nc1ccc2ncnc(Nc3cccc(Br)c3)c2c1 | 7.05 | 5.68 | –
6 | COc1cc2ncnc(Nc3cccc(Cl)c3)c2cc1OC | 5.40 | 5.01 | –
7 | Nc1ccc2ncnc(Nc3cccc(Br)c3)c2c1 | 6.38 | 4.98 | –
8 | CNN=Nc1ccc2ncnc(Nc3cccc(Br)c3)c2c1 | 7.05 | 5.06 | –
9 | Cn1nnc2c(C(N)=O)ncn2c1=O | 3.68 | 3.68 | 3.67
